Patent publication US20090304825A1, “ESTROGENIC EXTRACTS FOR USE IN TREATING VAGINAL AND VULVAR ATROPHY” (Bionovo, Inc., priority 2008, published 2009)

Tests used:
[1] = biological target: estrogen receptor beta (ERβ) (Homo sapiens, UniProt Q92731); test: Estrogen receptor subtype transcriptional activation (studies, method not described); type: cell-based; conditions: "Studies have shown"
[2] = system: either receptor (ERα, ERβ); test: Antagonistic effect on estrogen receptors (method not described); type: cell-based
ERβ [3] = biological target: T1, ERβ (Homo sapiens, UniProt Q92731); conditions: in the presence of ERβ
TNF-RE tkLuc = test: Antiestrogen effect on TNF-RE tkLuc; type: cell-based; conditions: for effect on the repression induced by E2: TNF-RE tkLuc; for activation of TNF-RE tkLuc: antiestrogens, in contrast to E2
Text: […]. […] […].

[4] = system: both estrogen receptor subtypes; test: Binding to estrogen receptor subtypes (method not described); conditions: "Studies have shown"
ERβ [5] = biological target: T1, ERβ; test: ERE-tk-Luc activation in U2OS osteosarcoma cells co-transfected with ERβ; type: cell-based; set-up: expressed in transfected cells; host or cells: U2OS osteosarcoma cells
Text: FIGS. 1A-1C. […] (Amarathaceae).

[6] = several small randomized trials; cited from earlier work
oopherectomized mice = test: Intra-vaginal administration to oopherectomized mice, vaginal and endometrial histology; type: in vivo
Text: The glands form back to back without intervening stroma. […] In one area, the glands arise in what appears to be a polyp with a broad stalk and thick fibrovascular core.

T1 sequence (Q92731 whole entry): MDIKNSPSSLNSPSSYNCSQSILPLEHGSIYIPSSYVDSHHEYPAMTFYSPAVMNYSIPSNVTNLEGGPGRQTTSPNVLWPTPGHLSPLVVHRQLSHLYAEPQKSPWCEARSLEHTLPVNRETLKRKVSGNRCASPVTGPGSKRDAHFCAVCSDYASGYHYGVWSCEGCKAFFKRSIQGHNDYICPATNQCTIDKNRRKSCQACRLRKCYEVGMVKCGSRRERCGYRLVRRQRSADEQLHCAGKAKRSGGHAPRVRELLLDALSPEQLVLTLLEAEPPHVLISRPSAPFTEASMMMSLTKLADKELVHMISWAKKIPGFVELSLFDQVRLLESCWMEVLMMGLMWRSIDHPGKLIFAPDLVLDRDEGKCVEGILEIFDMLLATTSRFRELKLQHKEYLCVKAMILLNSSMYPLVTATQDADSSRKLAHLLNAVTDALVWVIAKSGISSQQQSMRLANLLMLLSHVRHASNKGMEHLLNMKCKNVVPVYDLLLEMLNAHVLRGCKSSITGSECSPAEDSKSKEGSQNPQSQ
Chain of estrogen receptor beta (ERβ) (Q92731 whole entry): as above

ER subtype transcriptional activation [1]	Compound	antagonistic effect on either receptor [2]	effect on the repression induced by E2 (TNF-RE tkLuc)	activation of TNF-RE tkLuc (TNF-RE tkLuc)	also measured
ERβ selective transcriptional activation	COc1ccc(-c2coc3cc(O)ccc3c2=O)cc1O [Calycosin]	does not have an antagonistic effect on either receptor	–	–	–
–	C[C@]12CC[C@@H]3c4ccc(O)cc4CC[C@H]3[C@@H]1CC[C@@H]2O [E2, estradiol]	–	–	–	repression of TNF-α activation of TNF-RE tkLuc (ERβ [3]): 60-80%
–	C[C@]12CC[C@@H]3c4ccc(O)cc4C[C@@H](CCCCCCCCC[S+]([O-])CCCC(F)(F)C(F)(F)F)[C@H]3[C@@H]1CC[C@@H]2O (some centres unmarked) [ICI 182, 780]	–	abolished the repression induced by E2	2 fold	–
ERβ transcriptional activation only	C=CC(/C=C\c1ccc(O)cc1)c1ccc(O)cc1 (centres unmarked) [Nyasol]	does not have an antagonistic effect on either receptor	–	–	binding affinity to estrogen receptor subtypes [4]: binds with equal affinity to both estrogen receptor subtypes; activation of ERE-tk-Luc relative to estradiol (E2) (ERβ [5]; compared with 10 nM E2): activation equivalent to 10 nM estradiol; activation in the presence of ER antagonists (ERβ [5]; raloxifene (Ral), tamoxifen (Tam), b208 also ICI 182, 780): blocked the activation
–	Oc1ccc2c(c1)CC[C@H](c1ccccc1)[C@@H]2c1ccc(OCCN2CCCC2)cc1 [lasofoxifene]	–	–	–	vaginal maturation indices and vaginal pH relative to placebo [6]: improvements in vaginal maturation indices and vaginal pH
–	O=C(c1ccc(OCCN2CCCCC2)cc1)c1c(-c2ccc(O)cc2)sc2cc(O)ccc12 [raloxifene]	–	abolished the repression induced by E2	2 fold	antagonist effect on the activation by herbal extracts and active ingredients in VG101 (ERβ [5]; ERE-tk-Luc): blocked the activation
–	CC/C(=C(\c1ccccc1)c1ccc(OCCN(C)C)cc1)c1ccccc1 [tamoxifen]	–	abolished the repression induced by E2	2 fold	–
–	estrogen	–	–	–	endometrium histology (oopherectomized mice; mouse model, compared to controls): endomyometrium (the equivalent of complex atypical hyperplasia in women, worrisome for in situ carcinoma); vaginal epithelium histology (oopherectomized mice; oopherectomized mice, intra-vaginal, VG101 0.5 mg/day for 10 days): squamous epithelium with hyperkeratosis

Compound	ER subtype transcriptional activation [1]	antagonistic effect on either receptor [2]	effect on the repression induced by E2 (TNF-RE tkLuc)	activation of TNF-RE tkLuc (TNF-RE tkLuc)	also measured
COc1c(O)cc2c(=O)c3c(oc2c1O)oc1c(O)cccc13 [TCIF, tetracyclic isoflavone]	estrogen receptor beta (ERβ) selective transcriptional activation	does not have an antagonistic effect on either receptor	–	–	–
